In ChEMBL document CHEMBL3046400, “Variation in the laboratory susceptibility of turf-infesting white grubs (Coleoptera: Scarabaeidae) to biological, biorational and chemical control products” (2010) one finds Activity data, which are given here for nine compounds.

What all share (type): functional
Experiment [1] concerns Popillia japonica. As to the kind of experiment: Insecticidal activity against Popillia japonica assessed as mortality after 30 days.
The test system of experiment [2] is Popillia japonica. Kind of experiment: Insecticidal activity against Popillia japonica assessed as mortality after 10 days.
Experiment [3] relates to Amphimallon majale. Kind of experiment: Insecticidal activity against Amphimallon majalis (European chafer) assessed as mortality after 20 days.
In experiment [4] the test system is Popillia japonica. As to the kind of experiment: Insecticidal activity against Popillia japonica assessed as mortality after 20 days.
The subject of experiment [5] is Amphimallon majale. Kind of experiment: Insecticidal activity against Amphimallon majalis (European chafer) assessed as mortality after 30 days.
The subject of experiment [6] is Amphimallon majale. As to the kind of experiment: Insecticidal activity against Amphimallon majalis (European chafer) assessed as mortality after 10 days.
Experiment [7] has as its system Anomala orientalis. As to the kind of experiment: Insecticidal activity against Anomala orientalis assessed as mortality after 20 days. The arrangement: concentration or dose not given beside the values.
Experiment [8] has as its system Maladera castanea. As to the kind of experiment: Insecticidal activity against Maladera castanea assessed as mortality after 20 days. More on the design: concentration or dose not given beside the values.
Experiment [9] deals with Anomala orientalis. Kind of experiment: Insecticidal activity against Anomala orientalis assessed as mortality after 10 days. More on the design: concentration or dose not given beside the values.
Experiment [10] concerns Maladera castanea. As to the kind of experiment: Insecticidal activity against Maladera castanea assessed as mortality after 30 days. The arrangement: concentration or dose not given beside the values.
Experiment [11] deals with Maladera castanea. As to the kind of experiment: Insecticidal activity against Maladera castanea assessed as mortality after 10 days. More on the design: concentration or dose not given beside the values.
The subject of experiment [12] is Anomala orientalis. Kind of experiment: Insecticidal activity against Anomala orientalis assessed as mortality after 30 days. More on the design: concentration or dose not given beside the values.

For the compound `CN/C(=N/CC1CCOC1)N[N+](=O)[O-]` (stereo not given) [DINOTEFURAN], the Activity in experiment [1] was found to be 86.2%; in [2] it was 54.4%; in [3] it was 2.2%; in experiment [4], 69.3%; in experiment [5], 8.9%; in experiment [6], 0%.
Turning to `CN1COCN(Cc2cnc(Cl)s2)/C1=N\[N+](=O)[O-]` [THIAMETHOXAM], the Activity in experiment [7] is 57.5%; in experiment [1], 91%; in experiment [8] it was 39.1%; in [9], 27%; in experiment [2], 48.1%; in experiment [3], 16.4%. In addition, the Activity in experiment [4] stood at 74.9%; in experiment [10], 72.8%; in experiment [11], 28.2%; in experiment [5], 35.1%; in experiment [6], 13.1%; in experiment [12], 78.7%.
With `O=[N+]([O-])/N=C1\NCCN1Cc1ccc(Cl)nc1` [IMIDACLOPRID], the Activity in experiment [7] is given as 30.1%; in experiment [1], 41.7%; in experiment [8] it was 12.2%; in experiment [9], 9.7%; in experiment [2], 9.1%; in experiment [3] it was 18.3%. Also, the Activity is reported as 22.6% in [4]; 38.8% in experiment [10]; 9.2% in experiment [11]; 34.2% in experiment [5]; 13% in [6]; 68.3% in experiment [12].
As for `Cc1c(COC(=O)[C@@H]2[C@H](/C=C(\Cl)C(F)(F)F)C2(C)C)cccc1-c1ccccc1` [BIFENTHRIN], the Activity in [1] is recorded as 86.7%; in experiment [2], 36.9%; in [3] it was 0%; in [4], 59.3%; in [5] it was 0%; in experiment [6], 0%.
As for `C/C=C(\C)C(=O)O[C@H]1C[C@@H](OC(C)=O)[C@@]2(C(=O)OC)CO[C@H]3[C@@H](O)[C@@](C)([C@]45O[C@@]4(C)[C@@H]4C[C@H]5O[C@@H]5OC=C[C@@]54O)[C@H]4[C@]1(CO[C@]4(O)C(=O)OC)[C@@H]32` [AZADIRACHTIN A], the Activity turned out to be 87.2% in experiment [1]; 74.3% in experiment [2]; 1.1% in experiment [3]; 64.1% in [4]; 15.8% in [5]; 4% in experiment [6].
In the case of `CCOP(=S)(OCC)Oc1nc(Cl)c(Cl)cc1Cl` [CHLORPYRIFOS], the Activity in [7] was found to be 94.8%; in [1], 100%; in experiment [8] it was 89.6%; in experiment [9], 87.9%; in [2] it was 62.7%; in experiment [3], 89%. Also, the Activity in experiment [4] is listed as 84.4%; in [10], 92.4%; in [11], 65.5%; in experiment [5], 100%; in experiment [6], 43%; in [12] it was 98.6%.
With `CN/C(=N\[N+](=O)[O-])NCc1cnc(Cl)s1` [CLOTHIANIDINE], the Activity is reported as 89.3% in experiment [7]; 32.8% in experiment [1]; 75.7% in experiment [8]; 56% in [9]; 4% in experiment [2]; 22.6% in experiment [3]. Also, the Activity in experiment [4] came out at 22.9%; in experiment [10], 100%; in experiment [11], 39.8%; in experiment [5], 44.3%; in experiment [6], 19.8%; in experiment [12], 98.6%.
Consider `CC[C@H]1CCC[C@H](O[C@H]2CC[C@H](N(C)C)[C@@H](C)O2)[C@@H](C)C(=O)C2=C[C@@H]3[C@@H](C=C(C)[C@@H]4C[C@@H](O[C@@H]5O[C@@H](C)[C@H](OC)[C@@H](OC)[C@H]5OC)C[C@@H]34)[C@@H]2CC(=O)O1.CC[C@H]1CCC[C@H](O[C@H]2CC[C@H](N(C)C)[C@@H](C)O2)[C@@H](C)C(=O)C2=C[C@@H]3[C@@H](C=C[C@@H]4C[C@@H](O[C@@H]5O[C@@H](C)[C@H](OC)[C@@H](OC)[C@H]5OC)C[C@@H]34)[C@@H]2CC(=O)O1`, for which the Activity in [7] was 31.4%; in experiment [1] it was 58.9%; in experiment [8] it was 20.6%; in experiment [9], 3.2%; in [2] it was 7.3%; in experiment [3], 11.8%. Further, the Activity in [4] worked out at 33.5%; in experiment [10], 79.6%; in experiment [11], 6.6%; in experiment [5], 26.5%; in experiment [6], 17.1%; in [12], 59%.
On to `COP(=O)(OC)C(O)C(Cl)(Cl)Cl` (stereo not given) [TRICHLORFON], for which the Activity in [7] worked out at 95.1%; in [1] it was 94.8%; in [8] it was 97.7%; in [9] it was 95.6%; in experiment [2], 71.3%; in experiment [3], 2.6%. The Activity amounted to 92.6% in [4]; 100% in [10]; 70.3% in experiment [11]; 7.4% in experiment [5]; 6% in [6]; 96% in experiment [12].
